Where a name gives a salt, the structure may show the parent alone. Read-outs that look alike come from different tables or passages of the source.
Tests used:
[1] = Stability of Hydrate Form 2: maturation in water or acetic acid: water 1:3 at constant temperature; assay type: physicochemical; conditions: 40 hours
Procedure: Both solids obtained from maturation at 25° C.

[2] = Polymorphism study: maturation (temperature cycling RT to 50° C.) in solvents, XRPD; assay type: physicochemical
Procedure: One of 21 solvents was added to each vial in a number of aliquots (up to 30 volumes), with shaking. All the samples were then placed under maturation between RT to 50° C. (4 hours at each temperature) for 3 days. After maturation the samples were analysed by XRPD. Clear solutions were cooled to −20° C. (freezer). If no precipitation occurred samples were evaporated at RT.
Samples were placed under maturation between RT-50° C. (4 hours cycle) for 3 days. After maturation the samples were analyzed by XRPD. Clear solutions were then cooled to −20° C. (freezer). If no precipitation occurred, samples were evaporated at RT.
(§1) The corresponding solvents and solvent mixtures were added in portions of (a total of) 5, 10, 20, and 30 volumes at 50° C., with shaking, aiming for clear solutions. After each addition, the vials were allowed to shake for 20 minutes, after which observations were made. Solutions were allowed to evaporate, whereas slurries were set for 8 hour temperature cycling maturation, between RT and 50° C., for 5 days.
The oils obtained by solvent evaporation were used for the maturation screen. Anhydrous solvents (5 volumes; 100 μL) were used in order to minimise the amount of water present. Any solutions were allowed to slowly evaporate, whereas slurries were set for 8 hour temperature cycling maturation, between RT and 50° C. […] These were matured for a further 24 hours before performing XRPD analysis.
The selected solvents and solvent mixtures (5 to 20 volumes) were added with stirring. Any solutions were allowed to slowly evaporate, whereas slurries were set for 8 hour temperature cycling maturation, between RT and 50° C., for 2 days.
Crystals were ground in order to analyse them by XRPD. Suspensions were set for temperature cycling for a total of five days after which time XRPD analysis was carried out.

[3] = Solubility of free base hydrate and salts versus pH (Table 24); assay type: physicochemical
[4] = Solubility assessment using FB Hydrate Form 2; assay type: physicochemical
Procedure: The best solvent systems (clear solutions) were methanol:anisole 1:1 and DMSO (10 volumes, at RT), dioxane (10 volumes, 50° C.), chloroform (20 volumes, RT). […]

[5] = Storage at 25° C./93% RH for 1 week, re-analysis by XRPD/HPLC; assay type: physicochemical; conditions: 1 week
[6] = 2-Week comparative stability studies; assay type: physicochemical; conditions: 2 weeks; for change in appearance: 5° C. (closed), ambient (closed), ambient (closed-exposed to light), ambient (open), 60° C. (closed), RT/75% RH (open), 40° C./75% RH (open); for change of water content, as determined by KF: all seven storage conditions
Procedure: (closed); (ii) ambient (closed); (iii) ambient (closed-exposed to light); (iv) ambient (open); (v) 60° C. (closed); (vi) RT/75% RH (open); and (vii) 40° C./75% RH (open).

Dissolution = assay type: physicochemical
Procedure: The dissolution rate for the hydrate was about 80% in 15 min at pH 1.2 and about 20% in 60 min at pH 2.5. The dissolution rate of the bis-sulfuric acid salt was 100% in 15 min at both pH 1.2 and pH 2.5.

[7] = Gravimetric vapour sorption (GVS); assay type: physicochemical
Procedure: Sorption isotherms were obtained using a Hiden IGASorp moisture sorption analyser, controlled by CFRSorp software. The sample temperature was maintained at 25° C. by a Huber re-circulating water bath. The humidity was controlled by mixing streams of dry and wet nitrogen, with a total flow rate of 250 ml/min. The relative humidity (RH) was measured by a calibrated Vaisala RH probe (dynamic range of 0-95% RH), located near the sample. The weight change, (mass relaxation) of the sample as a function of % RH was constantly monitored by the microbalance (accuracy ±0.001 mg). Typically 10-20 mg of sample was placed in a tared mesh stainless steel basket under ambient conditions. The sample was loaded and unloaded at 40% RH and 25° C. (typical room conditions). A moisture sorption isotherm was performed as outlined below (2 scans giving 1 complete cycle). The standard isotherm was performed at 25° C. at 10% RH intervals over a 0-90% RH range.
The software uses a least squares minimisation procedure together with a model of the mass relaxation, to predict an asymptotic value. The measured mass relaxation value must be within 5% of that predicted by the software, before the next % RH value is selected. The minimum equilibration time was set to 1 hour and the maximum to 4 hours. The sample was recovered after completion of the isotherm and re-analysed by XRPD.

[8] = PK properties in non-clinical animal species (all species); assay type: in vivo, CD-1 mouse, Wistar rat, Cyno monkey, Beagle dog; conditions: animal pharmacology models and non-clinical toxicology species
Procedure: For example, Compound 1 bis-hydrogen sulfate monohydrate was evaluated in CD-1 mouse, Wistar rat, Cyno monkey, and Beagle dog. Cross species allometric scaling of CL (drug clearance) and Vss (volume at steady state) predicts low CL, high Vss and long T112 for Compound 1 in humans.

[9] = Solubility of bis-sulfuric acid salt Form 1 in solvents at 50° C.; assay type: physicochemical
Procedure: as §1, with “Bis-Sulfuric acid salt Form 1 of Compound 1 (ca. 35 mg) was weighed into vials. The” for “The”

[10] = Storage at 40° C./75% RH (elevated humidity) for 1 week, re-analysis by XRPD/HPLC; conditions: salt screen solids, 1 week, XRPD pattern or observation
Procedure: The crystalline solids were filtered, dried at ambient conditions, and stored at 40° C./75% RH for 1 week and analyzed by ^1H NMR/IC.
Samples from the screen using amorphous free base Compound 1 were analysed by ^1H-NMR and DSC, and re-analysis by XRPD was also carried out after drying at 50° C./vacuum and storage at 40° C./75% RH (the same sample was dried and stored at elevated humidity).

[11] = Density and flowability (Hausner ratio, Carr index); assay type: physicochemical
Source text: The Hausner ratio and the Carr index are correlated to the flowability of a powder or granular material. […] The flowability of both salts are acceptable for manufacturing.

[12] = Thermodynamic aqueous solubility; assay type: physicochemical; conditions: salts scaled-up at 0.5 gram

## COc1cc(-c2cccc3cc([C@H](C)Nc4nc(N)ncc4C#N)n(-c4ccccc4)c(=O)c23)ccn1 [Form 2 of the free base of Compound 1]
[1]; acetic acid: water 1:3, 25° C.
  XRPD form after maturation: unchanged Form 2
[1]; acetic acid: water 1:3, 90° C.
  XRPD form after maturation: some evidence of the acetic acid solvate Form 6 mixed with a majority of Form 2
[1]; pure water, 25° C.
  XRPD form after maturation: unchanged Form 2
[1]; pure water, 90° C.
  XRPD form after maturation: Form 2
[2]; three days, listed as hydrate Form 2 of free base Compound 1
  XRPD form after maturation in acetic acid: water 1:1: did not show any changes in form
[3]; 0.1N HCl, 37° C., at saturation
  Solubility: 16000 µg/mL
[3]; Simulated Gastric Fluid
  Solubility: 8130 µg/mL
[3]; Simulated Intestinal Fluid
  Solubility: 2 µg/mL
[3]; citrate buffer, pH 2.5
  Solubility: 0.2-0.3 mg/mL ^
[4]; 2-methyltetrahydrofuran
  volumes of solvent giving a clear solution: 50 volumes
[4]; DCM
  volumes of solvent giving a clear solution: 100 volumes
[4]; DCM:methanol 1:1
  volumes of solvent giving a clear solution: 100 volumes
[4]; DME
  volumes of solvent giving a clear solution: 100 volumes
[4]; DMSO, at RT
  volumes of solvent giving a clear solution: 10 volumes
[4]; THF
  volumes of solvent giving a clear solution: 100 volumes
[4]; THF:5% water
  volumes of solvent giving a clear solution: 50 volumes
[4]; acetonitrile/5% water
  volumes of solvent giving a clear solution: 100 volumes
[4]; chloroform, RT
  volumes of solvent giving a clear solution: 20 volumes
[4]; dioxane, 50° C.
  volumes of solvent giving a clear solution: 10 volumes
[4]; ethanol:anisole
  volumes of solvent giving a clear solution: 50 volumes
[4]; methanol
  volumes of solvent giving a clear solution: 100 volumes
[4]; methanol:anisole 1:1, at RT
  volumes of solvent giving a clear solution: 10 volumes
[5]
  stability on storage at 25° C./93% RH: stable
[5]; listed as Free base Form 2
  stability on storage at 25° C./93% RH: mainly the same pattern with a few differences
[6]
  change in appearance: No change in appearance
  change of water content, as determined by KF: No significant change
Dissolution; in 15 min at pH 1.2, listed as hydrate
  dissolution rate: about 80%
Dissolution; in 60 min at pH 2.5
  dissolution rate: about 20%
[7]
  GVS: changes in the XRPD after the experiment: very slight changes
[7]; between 40-50% RH
  GVS: moisture uptake on loading: 1 % w/w
[7]; between 90-10% on desorption
  GVS: moisture content on desorption: 5.7 % w/w

## COc1cc(-c2cccc3cc([C@H](C)Nc4nc(N)ncc4C#N)n(-c4ccccc4)c(=O)c23)ccn1 [bis-sulfuric acid monohydrate salt of (S)-2-amino-4-((1-(8-(2-methoxypyridin-4-yl)-1-oxo-2-phenyl-1,2-dihydroisoquinolin-3-yl)ethyl)amino)pyrimidine-5-carbonitrile]
[8]
  oral pharmacokinetics: good oral pharmacokinetics
[2]; 30 volumes of solvent, RT to 50° C., five days, all solvents other than acetic acid/water, methanol, ethanol/water
  changes on maturation of slurries: did not show any changes
[3]; Simulated Gastric Fluid, thermodynamic from solid, read-out: Solubility
  Solubility: > 17000 µg/mL
[3]; Simulated Intestinal Fluid, fassgf or other biorelevant, thermodynamic from solid, read-out: Solubility
  Solubility: 40 µg/mL
[3]; aqueous buffer, thermodynamic from solid, citrate buffer, pH 2.5, at 37° C., read-out: Solubility
  Solubility: > 12000 µg/mL
[3]; aqueous buffer, thermodynamic from solid, citrate buffer, pH 2.5, at RT, read-out: Solubility
  Solubility: > 12000 µg/mL
[3]; aqueous buffer, thermodynamic from solid, pH 1.65, 37° C., read-out: Solubility
  Solubility: > 12000 µg/mL
[3]; aqueous buffer, thermodynamic from solid, pH 1.65, RT, read-out: Solubility
  Solubility: > 12000 µg/mL
[3]; aqueous buffer, thermodynamic from solid, pH 1.9, 37° C., read-out: Solubility
  Solubility: > 12000 µg/mL
[3]; aqueous buffer, thermodynamic from solid, pH 1.9, RT, read-out: Solubility
  Solubility: > 12000 µg/mL
[3]; aqueous buffer, thermodynamic from solid, pH 2.5, 37° C., read-out: Solubility
  Solubility: > 12000 µg/mL
[3]; aqueous buffer, thermodynamic from solid, pH 2.5, RT, read-out: Solubility
  Solubility: > 12000 µg/mL
[3]; aqueous buffer, thermodynamic from solid, pH 3.0, 37° C., read-out: Solubility
  Solubility: 3450 µg/mL
[3]; aqueous buffer, thermodynamic from solid, pH 3.0, RT, read-out: Solubility
  Solubility: 1580 µg/mL
[3]; aqueous buffer, thermodynamic from solid, pH 3.8, 37° C., read-out: Solubility
  Solubility: 280 µg/mL
[3]; aqueous buffer, thermodynamic from solid, pH 3.8, RT, read-out: Solubility
  Solubility: 290 µg/mL
[3]; simulated gastric fluid, thermodynamic from solid, 0.1N HCl, 37° C., at saturation, read-out: Solubility
  Solubility: > 90000 µg/mL
[3]; thermodynamic from solid, Water (pH 1.16), read-out: Solubility
  Solubility: > 60000 µg/mL
[3]; up to pH 3
  solubility compared to the hydrate: significantly higher solubility
[9]; acetic acid/water 1:3 at 50° C.
  volumes of solvent giving a clear solution: 5 volumes
[9]; methanol at 50° C.
  volumes of solvent giving a clear solution: 5 volumes
[10]
  Storage 40° C./75% RH: salt Pattern 1
[11]
  flowability compared to the hydrate: improved flowability
[12]
  Thermodynamic aqueous solubility: > 51 mg/mL
[6]
  change in appearance: No change in appearance
  change of water content, as determined by KF: No significant change
Dissolution; in 15 min at pH 1.2, listed as bis-sulfuric acid salt
  dissolution rate: 100%
Dissolution; in 15 min at pH 2.5
  dissolution rate: 100%
[7]; hygroscopicity in words, 25° C.
  GVS Single cycle: Slightly hygroscopic
